Values quoted from earlier work in patent publication US8071125B2, “Transdermal patch containing isosorbide dinitrate and bisoprolol” (Beijing Kangbeide Pharmaceutical Technology Development …, priority 2005, dated 2011).

Test system: Patients with Primary Hypertension
Details: oral administration

CC(C)NCC(O)COc1ccc(COCCOC(C)C)cc1 (stereo not shown) [Bisoprolol]
average reduction of the heart rate after the treatment: 15.1%
